Columns and labels:
[1] = tested on: normal colonic epithelial cells NCM460; assay: In vitro anticancer activities of complexes (Experiment 2); assay type: cell-based; conditions: NCM460, 24 hours
Excerpt: (§1) The cell lines used in the experiments were obtained from Peking University.

[2] = tested on: HepG2; assay: as above; assay type: cell-based; conditions: HepG 2, 24 hours
Excerpt: as §1

[3] = tested on: human microglia CHEM5; assay: as above; assay type: cell-based; conditions: CHEM 5, 24 hours
Excerpt: as §1

[4] = tested on: human umbilical vein endothelial cells HUVEC; assay: as above; assay type: cell-based; conditions: 24 hours
Procedure: as §1
The safety index (SI) was calculated according to the following equation:
^bSafety Index (SI)=IC50(HUVEC)/IC50(Hela)

[5] = tested on: SW480; assay: as above; assay type: cell-based, human; conditions: SW480, 24 hours
Excerpt: as §1

[6] = tested on: A375; assay: as above; assay type: cell-based, human; conditions: A375, 24 hours
Excerpt: as §1

[7] = tested on: A549; assay: as above; assay type: cell-based, human; conditions: A549, 24 hours
Excerpt: as §1

[8] = tested on: HeLa; assay: as above; assay type: cell-based, human; conditions: 24 hours
Excerpt: as §1

[9] = tested on: MCF7; assay: as above; assay type: cell-based, human; conditions: MCF7, 24 hours
Excerpt: as §1

[10] = H&E staining analysis of major organs; assay type: in vivo, nude mice; conditions: after treatment
Excerpt: Further, the parts such as heart, spleen, lung, liver, and kidney were subjected to the H&E staining analysis.

[11] = tested on: HepG2 liver cancer cell lines; assay: Cytotoxicity, CCK-8 kit, multi-cell lines (Experiment 1); assay type: cell-based; conditions: HepG 2, 24 hours
[12] = tested on: MDA-MB-231 highly metastatic breast cancer cell line; assay: as above; assay type: cell-based; conditions: MDA-MB-231, 24 hours
[13] = tested on: MCF7; assay: as above; conditions: MCF7, 24 hours
[14] = tested on: HEK293 human renal epithelial cell line; assay: as above; assay type: cell-based; conditions: HEK293, 24 hours
[15] = tested on: DU145 prostate cancer cells; assay: as above; assay type: cell-based; conditions: DU145, 24 hours
[16] = Hematological analysis of liver and kidney function; assay type: in vivo, nude mice; conditions: blood samples after treatment
Excerpt: The research indicators included alanine aminotransferase (ALT), urea nitrogen (BUN), triglycerides (TG), creatine kinase (CK), aspartate aminotransferase (AST), creatinine (CREA), high Density lipoprotein (HDLC), and lactate dehydrogenase (LDH).
The kidney function was related to the blood indicators of BUN and CREA and the liver function. The results about alanine aminotransferase (ALT) and aspartate aminotransferase (AST) in the blood of nude mice were shown in FIG. 8.

[17] = tested on: Raw264.7; assay: Cytotoxicity, CCK-8 kit, multi-cell lines (Experiment 1); assay type: cell-based; conditions: Raw264.7, 24 hours
[18] = tested on: A549; assay: as above; conditions: A549, 24 hours
[19] = tested on: COS7 renal epithelial cells; assay: as above; assay type: cell-based; conditions: COS7, 24 hours
[20] = tested on: HeLa tumors; assay: In vivo tumor suppression experiment; parameters: species or system nude mice; conditions: after 21 days of treatment, once every 2 days
Procedure: Nude mice carrying HeLa tumors were divided into 4 […], each with 8 mice. […] The dosage was […], and the administration frequency was once every 2 days. The volume of the tumor was calculated with the length and width of the tumor according to the following formula:
Tumor volume (mm^3)=½×length×width^2.
After 21 days, the nude mice of each group were died and dissected. The tumor inhibition was calculated according to the following formula: […]
in which Wc and Wt were the masses of the tumors in the control group and the experimental group, respectively.

[21] = tested on: A375 human malignant melanoma cell line; assay: Cytotoxicity, CCK-8 kit, multi-cell lines (Experiment 1); conditions: A375, 24 hours
Procedure: (§2) The cells were cultured in a cell incubator containing 5% CO2 under the atmosphere of saturated steam at a constant temperature of 37° C. The medium used was a high-sugar Dulbecco's modified Eagle's medium containing 10% fetal bovine serum, 100 μg/mL penicillin and 100 U/mL streptomycin. The cells were grown in a six-well culture plate and passaged every other day. The cytotoxicity of the complex was evaluated by the CCK-8 kit, in which the cells were passed to a 96-well plate containing about 25,000 of cells and 200 µL of medium in each well. After the cells had grown stably and adherently, the medium was changed to complete mediums with different concentrations of the complex to be detected, and a 3-well parallel experiment was performed for each concentration. After culturing in the incubator for 24 hours, the medium was removed and the cells were washed with 100 L of PBS buffer (pH=7.4) for 3 times. Subsequently, 100 L mixture of 10% CCK-8 solution and 90% serum-free medium was added into both the test wells and the control wells, and then was placed in an incubator for culturing. After about 1 hour, the absorption of 450 nm wavelength light in the test and control wells were measured by using a microplate reader, and the cell viabilities (CV) under different concentrations of the complex were calculated according to the following formula: […]

[22] = tested on: HeLa; assay: as above; conditions: 24 hours
Procedure: as §2

SMILES | IC50 [1] [µM] | IC50 [2] [µM] | IC50 [3] [µM] | IC50 [4] [µM] | IC50 [5] [µM] | IC50 [6] [µM] | IC50 [7] [µM] | IC50 [8] [µM] | IC50 [9] [µM] | further results
C#CCN(C)c1ccc2c(c1)[O][Ga-3]13([N+]#CC)([N+]#CC)[O]c4cc(N(CC)CC)ccc4C=[N+]1C(C#N)=C(C#N)[N+]3=C2.Cl [Complex 2] | 4.26 | 8.19 | 2.82 | 1.88 | 2.2 | 0.83 | 2.29 | 6.35 | 5.29 | –
CC#[N+][Ga-3]123([N+]#CC)[O]c4ccccc4C=[N+]1C(C#N)=C(C#N)[N+]2=Cc1ccccc1[O]3.Cl [Complex 4] | 27.7 | 43.5 | 1.64 | 6.37 | 0.59 | 2.2 | 1.16 | 75.3 | 134 | –
CC#[N+][Ga-3]123([N+]#CC)[O]c4cc(N(C)C)ccc4C=[N+]1C(C#N)=C(C#N)[N+]2=Cc1ccc(N(C)C)cc1[O]3.Cl [Complex 6] | 6.44 | 7.75 | 2.27 | 4.09 | 4.85 | 0.07 | 1.38 | 1.38 | 0.47 | –
CC#[N+][Ga-3]123([N+]#CC)[O]c4cc(N5CCCC5)ccc4C=[N+]1C(C#N)=C(C#N)[N+]2=Cc1ccc(N2CCCC2)cc1[O]3.Cl [Complex 7] | 23.1 | 10.3 | 5.71 | 2.47 | 7.58 | 1.4 | 3.56 | 8.61 | 14.2 | –
C#CCN(C)c1ccc2c(c1)[O][Ga-3]13([N+]#CC)([N+]#CC)[O]c4cc(N(C)CC#C)ccc4C=[N+]1C(C#N)=C(C#N)[N+]3=C2.Cl [Complex 8] | 71 | 291 | 236 | 203 | 572 | 229 | 139 | 260 | 190 | –
CC#[N+][Ga-3]123([N+]#CC)[O]c4cc(N(CC)CC)ccc4C=[N+]1c1ccccc1[N+]2=Cc1ccc(N(CC)CC)cc1[O]3.Cl [Complex 9] | 33.5 | 46.1 | 1.81 | 9.33 | 4.89 | 1.37 | 1.22 | 12.4 | 34.8 | –
CC#[N+][Ga-3]123([N+]#CC)[O]c4c(ccc5c4SCCN5C)C=[N+]1C(C#N)=C(C#N)[N+]2=Cc1ccc2c(c1[O]3)SCCN2C.Cl [Complex 10] | 322 | 72.7 | 51.9 | 332 | 451 | 91.2 | 124 | 87.7 | 61.7 | –
CC#[N+][Ga-3]123([N+]#CC)[O]c4cc5c(cc4C=[N+]1C(C#N)=C(C#N)[N+]2=Cc1cc2c(cc1[O]3)N(C)CCS2)SCCN5C.Cl [Complex 12] | 89.9 | 34.6 | 44.7 | 58.9 | 42.6 | 10.8 | 39.3 | 45.8 | 43.5 | –
CC#[N+][Ga-3]123([N+]#CC)[O]c4cc(N(C)CCCC)ccc4C=[N+]1C(C#N)=C(C#N)[N+]2=Cc1ccc(N(C)CCCC)cc1[O]3.Cl [Complex 13] | 20.6 | 20.9 | 2.28 | 3.5 | 4.1 | 0.9 | 2.72 | 21.5 | 1.74 | –
CC#[N+][Ga-3]123([N+]#CC)[O]c4ccccc4C=[N+]1c1ccccc1[N+]2=Cc1ccccc1[O]3.Cl [Complex 14] | 212 | 38.6 | 65.1 | 163 | 257 | 24 | 76.5 | 19.5 | 53 | –
CC#[N+][Ga-3]123([N+]#CC)[O]c4cc(N(CC)CC)ccc4C=[N+]1c1ccncc1[N+]2=Cc1ccc(N(CC)CC)cc1[O]3.Cl [Complex 15] | 340 | 89.7 | 298 | 75.8 | 325 | 215 | 273 | 97.4 | 204 | –
N.N.[Cl][Pt][Cl] [cisplatin, reference compound] | – | – | – | – | – | – | – | – | – | H&E staining of liver and kidney [10]: liver edema and degeneration and kidney swelling; IC50 [11]: 5.3 ± 0.1 µM; IC50 [12]: 27 ± 1.3 µM; IC50 [13]: 9.1 ± 0.9 µM; IC50 [14]: 2 ± 0.1 µM; IC50 [15]: 2.7 ± 0.1 µM; effects on liver and kidney function (blood indicators ALT, AST, BUN, CREA) [16]: acute toxicity against the liver and the kidney; IC50 [17]: 10.1 ± 1.2 µM; IC50 [18]: 9.4 ± 1.5 µM; IC50 [19]: 6.7 ± 0.6 µM; tumor inhibition [20]: 29.9%; IC50 [21]: 3.4 ± 0.3 µM; IC50 [22]: 5.3 ± 0.3 µM

Source: patent US20210253603A1, “MAIN GROUP METAL COMPLEX AND ITS PREPARATION METHOD AND USE” (PEKING UNIVERSITY, priority 2018, published 2021)
